# Source: PMC8648872, “A host-directed macrocyclic peptide therapeutic for MDR gram negative bacterial infections” (Scientific Reports, 2021)
# Where a SMILES comes first, the peptide text is derived from it. Bridges are numbered along the chain shown (N, C = ends).
# Assay: Single dose pharmacokinetics (plasma and peritoneal fluid)
# Type: in vivo, BALB/c mice
# Details: both sexes, mouse, ip, 1.25 mg/kg single i.p., LC-MS/MS
# Protocol: Single dose PK of MTD12813 was evaluated by quantifying plasma peptide concentrations following 1.25 mg/kg injections administered i.p. to 2 M/2F BALB/c mice. EDTA plasma was prepared from blood collected aseptically by terminal cardiac puncture. MTD12813 plasma concentrations were determined by reverse-phase liquid chromatography (XBridge phenyl 3.5 µm column, Waters) on an Acquity H-Class UPLC (Waters) with tandem electrospray mass spectroscopy on a Xevo TQ-S running MassLynx V4.1 (Waters). Quantitative mass spectroscopy was performed by multiple-reaction monitoring transition 394.04 > 519.35, with area under the curve determined by TargetLynx (Waters).
# Cryopreserved Kp-1705 was suspended in PBS to a density of ca. 1 × 10^9 CFU/ml, and incubated with saline or 1.25 µg/ml MTD12813 at room temperature for 1 h. […] In vitro antibacterial activity of MTD12813 (1.25 μg/ml) -treated cells (1 h; 37 °C) was determined by plating saline or peptide treated cells on TSA plates. Growth kinetics of saline and MTD12813-treated cells was determined by diluting samples from the 1 h incubation mixtures 1:40 into TSB and monitoring growth (620 nm) for 5.5 h at 37 °C. Antibacterial activity of MTD12813 in PF was determined by i.p. injection of naïve male BALB/c mice (n = 5 per group) with 1.25 mg/kg of MTD12813 or saline i.p. (10 ml/kg). […]
compound,measurement,setting,value
"CC[C@H](C)[C@@H]1NC(=O)[C@@H]2CSSC[C@H](NC(=O)[C@H]([C@@H](C)CC)NC(=O)[C@@H]3CSSC[C@H](NC1=O)C(=O)N[C@@H](C(C)C)C(=O)NCC(=O)N[C@@H](CCCNC(=N)N)C(=O)NCC(=O)N3)C(=O)N[C@@H](C(C)C)C(=O)N[C@@H](CCCNC(=N)N)C(=O)N[C@@H](CCCNC(=N)N)C(=O)N[C@@H](CCCNC(=N)N)C(=O)N2 [MTD12813] (cyclo(CICVGRGCICVRRR); disulfide 1-10, 3-8)",Cmax,"naïve BALB/c mice (2M/2F per time point), EDTA plasma, read-out: peak plasma concentration (Cmax)",251 ± 79.8 ng/mL
same,Tmax,"naïve male and female BALB/c mice (2M/2F per time point), plasma",15 min
